According to patent publication US8044082B2, “N-phenylacetamide inhibitors of the enzyme SOAT-1 and pharmaceutical/cosmetic compositions comprised thereof” (Galderma Research & Development, priority 2007, dated 2011):

SMILES	melting point
CC(C)c1cccc(C(C)C)c1NC(=O)CN1C(=O)N(c2ccccc2Cl)C2(CCCCC2)C1=O [compound (I.20), 2-[1-(2-Chlorophenyl)-2,4-dioxo-1,3-diazaspiro[4.5]dec-3-yl]-N-(2,6-di-isopropylphenyl)acetamide]	252 °C
CCc1cc(C)cc(CC)c1NC(=O)CN1C(=O)N(c2ccc(C)cc2)C2(CCCCC2)C1=O [compound (I.49), N-(2,6-Diethyl-4-methylphenyl)-2-(2,4-dioxo-1-p-tolyl-1,3-diazaspiro[4.5]dec-3-yl)acetamide]	223 °C
CC(C)CN1C(=O)N(CC(=O)Nc2c(C(C)C)cccc2C(C)C)C(=O)C12CCCCC2 [compound (I.28), N-(2,6-Diisopropylphenyl)-2-(1-isobutyl-2,4-dioxo-1,3-diazaspiro[4.5]dec-3-yl)acetamide]	233 °C
CCc1ccc(N2C(=O)N(CC(=O)Nc3c(C(C)C)cccc3C(C)C)C(=O)C23CCCCC3)cc1 [compound (I.36), N-(2,6-Diisopropylphenyl)-2-[1-(4-ethylphenyl)-2,4-dioxo-1,3-diazaspiro[4.5]dec-3-yl]acetamide]	221 °C
CCc1cccc(CC)c1NC(=O)CN1C(=O)N(CCc2ccccc2)C2(CCCCC2)C1=O [compound (I.51), N-(2,6-Diethylphenyl)-2-(2,4-dioxo-1-phenethyl-1,3-diazaspiro[4.5]dec-3-yl)acetamide]	178 °C
CC(C)c1cccc(C(C)C)c1NC(=O)CN1C(=O)N(CC(C)(C)C)C2(CCCCC2)C1=O [compound (I.32), N-(2,6-Diisopropylphenyl)-2-[1-(2,2-dimethylpropyl)-2,4-dioxo-1,3-diazaspiro[4.5]dec-3-yl]acetamide]	250 °C
CC(C)c1cccc(C(C)C)c1NC(=O)CN1C(=O)N(c2ccc(Cl)cc2)C2(CCCC2)C1=O [compound (I.24), 2-[1-(4-Chlorophenyl)-2,4-dioxo-1,3-diazaspiro[4.4]non-3-yl]-N-(2,6-di-isopropylphenyl)acetamide]	270 °C
Cc1ccccc1N1C(=O)N(CC(=O)Nc2c(C(C)C)cccc2C(C)C)C(=O)C12CCCCC2 [compound (I.21), N-(2,6-Diisopropylphenyl)-2-(2,4-dioxo-1-o-tolyl-1,3-diazaspiro[4.5]dec-3-yl)acetamide]	238 °C
Cc1cc(C(=O)N(C)c2ccccc2)cc(C)c1NC(=O)CN1C(=O)N(c2ccccc2)C2(CCCCC2)C1=O [compound (I.4), 4-[2-(2,4-Dioxo-1-phenyl-1,3-diazaspiro[4.5]dec-3-y]acetylamino]-3,5,N-tri methyl-N-phenylbenzamide]	242 °C
CC(C)c1cccc(C(C)C)c1NC(=O)CN1C(=O)N(c2cccc(Cl)c2)C2(CCCCC2)C1=O [compound (I.12), 2-[1-(3-Chlorophenyl)-2,4-dioxo-1,3-diazaspiro[4.5]dec-3-yl]-N-(2,6-di-isopropylphenyl)acetamide]	240 °C
Cc1cccc(N2C(=O)N(CC(=O)Nc3c(C(C)C)cccc3C(C)C)C(=O)C23CCCCC3)c1 [compound (I.16), N-(2,6-Diisopropylphenyl)-2-(2,4-dioxo-1-m-tolyl-1,3-diazaspiro[4.5]dec-3-yl)acetamide]	215 °C
CC(C)c1cccc(C(C)C)c1NC(=O)CN1C(=O)N(c2ccc(Cl)cc2)C2(CCCCC2)C1=O [compound (I.6), 2-[1-(4-Chlorophenyl)-2,4-dioxo-1,3-diazaspiro[4.5]dec-3-yl]-N-(2,6-di-isopropylphenyl)acetamide]	237 °C
CCc1cccc(CC)c1NC(=O)CN1C(=O)N(CC(C)C)C2(CCCCC2)C1=O [compound (I.59), N-(2,6-Diethylphenyl)-2-(1-isobutyl-2,4-dioxo-1,3-diazaspiro[4.5]dec-3-yl)acetamide]	209 °C
Cc1ccc(N2C(=O)N(CC(=O)Nc3c(C)cc(C)cc3Cl)C(=O)C23CCCCC3)cc1 [compound (I.50), N-(2-Chloro-4,6-dimethylphenyl)-2-(2,4-dioxo-1-p-tolyl-1,3-diazaspiro[4.5]dec-3-yl)acetamide]	248 °C
CCc1ccc(N2C(=O)N(CC(=O)Nc3c(CC)cccc3CC)C(=O)C23CCCC3)cc1 [compound (I.57), N-(2,6-Diethylphenyl)-2-[1-(4-ethylphenyl)-2,4-dioxo-1,3-diazaspiro[4.4]non-3-yl]acetamide]	191 °C
CC(C)c1cccc(C(C)C)c1NC(=O)CN1C(=O)N(CC2CCCCC2)C2(CCCCC2)C1=O [compound (I.27), 2-(1-Cyclohexylmethyl-2,4-dioxo-1,3-diazaspiro[4.5]dec-3-yl)-N-(2,6-di-isopropylphenyl)acetamide]	219 °C
Cc1ccc(N2C(=O)N(CC(=O)Nc3c(C)cc(C)cc3C)C(=O)C23CCCCC3)cc1 [compound (I.45), 2-(2,4-Dioxo-1-p-tolyl-1,3-diazaspiro[4.5]dec-3-yl)-N-(2,4,6-trimethylphenyl)acetamide]	266 °C
CC(C)c1cccc(C(C)C)c1NC(=O)CN1C(=O)N(c2ccc(OCc3ccccc3)cc2)C2(CCCCC2)C1=O [compound (I.60), 2-[1-(4-Benzyloxyphenyl)-2,4-dioxo-1,3-diazaspiro[4.5]dec-3-yl]-N-(2,6-di-isopropylphenyl)acetamide]	118 °C

SMILES	melting point
CC(C)c1cccc(C(C)C)c1NC(=O)CN1C(=O)N(c2ccccc2F)C2(CCCCC2)C1=O [compound (I.19)]	231 °C
CCc1ccc(N2C(=O)N(CC(=O)Nc3c(C(C)C)cccc3C(C)C)C(=O)C23CCCC3)cc1 [compound (I.37), N-(2,6-Diisopropylphenyl)-2-[1-(4-ethylphenyl)-2,4-dioxo-1,3-diazaspiro[4.4]non-3-yl]acetamide]	246 °C
CC(C)c1cccc(C(C)C)c1NC(=O)CN1C(=O)N(c2ccc(CO)cc2)C2(CCCCC2)C1=O [compound (I.42), N-(2,6-Diisopropylphenyl)-2-[1-(4-hydroxymethylphenyl)-2,4-dioxo-1,3-diazaspiro[4.5]dec-3-yl]acetamide]	230 °C
CCCCCN1C(=O)N(CC(=O)Nc2c(C(C)C)cccc2C(C)C)C(=O)C12CCCCC2 [compound (I.29), N-(2,6-Diisopropylphenyl)-2-(2,4-dioxo-1-pentyl-1,3-diazaspiro[4.5]dec-3-yl)acetamide]	200 °C
CCCCCCCN1C(=O)N(CC(=O)Nc2c(CC)cccc2CC)C(=O)C12CCCCC2 [compound (I.58), N-(2,6-Diethylphenyl)-2-(1-heptyl-2,4-dioxo-1,3-diazaspiro[4.5]dec-3-yl)acetamide]	126 °C
CC(C)c1cccc(C(C)C)c1NC(=O)CN1C(=O)N(c2ccc(OCc3ccccc3)cc2)C2(CCCC2)C1=O [compound (I.41), 2-[1-(4-Benzyloxyphenyl)-2,4-dioxo-1,3-diazaspiro[4.4]non-3-yl]-N-(2,6-di-isopropylphenyl)acetamide]	232 °C
CC(C)c1cccc(C(C)C)c1NC(=O)CN1C(=O)N(C2CCCC2)C2(CCCCC2)C1=O [compound (I.13), 2-(1-Cyclopentyl-2,4-dioxo-1,3-diazaspiro[4.5]dec-3-yl)-N-(2,6-diisopropyl-phenyl)acetamide]	257 °C
Cc1ccc(N2C(=O)N(CC(=O)Nc3c(C(C)C)cccc3C(C)C)C(=O)C23CCCC3)cc1 [compound (I.34), N-(2,6-Diisopropylphenyl)-2-(2,4-dioxo-1-p-tolyl-1,3-diazaspiro[4.4]non-3-yl)acetamide]	278 °C
CCCN1C(=O)N(CC(=O)Nc2c(C(C)C)cccc2C(C)C)C(=O)C12CCCCC2 [compound (I.25), N-(2,6-Diisopropylphenyl)-2-(2,4-dioxo-1-propyl-1,3-diazaspiro[4.5]dec-3-yl)acetamide]	253 °C
CCCCCCCCN1C(=O)N(CC(=O)Nc2c(C(C)C)cccc2C(C)C)C(=O)C12CCCCC2 [compound (I.44), N-(2,6-Diisopropylphenyl)-2-(1-octyl-2,4-dioxo-1,3-diazaspiro[4.5]dec-3-yl)acetamide]	202 °C
CCc1ccc(N2C(=O)N(CC(=O)Nc3c(CC)cccc3CC)C(=O)C23CCCCC3)cc1 [compound (I.54), N-(2,6-Diethylphenyl)-2-[1-(4-ethylphenyl)-2,4-dioxo-1,3-diazaspiro[4.5]dec-3-yl]acetamide]	188 °C
CCCN1C(=O)N(CC(=O)Nc2c(CC)cccc2CC)C(=O)C12CCCCC2 [compound (I.55), N-(2,6-Diethylphenyl)-2-(2,4-dioxo-1-propyl-1,3-diazaspiro[4.5]dec-3-yl)acetamide]	222 °C
CCCCCCN1C(=O)N(CC(=O)Nc2c(C(C)C)cccc2C(C)C)C(=O)C12CCCCC2 [compound (I.35), N-(2,6-Diisopropylphenyl)-2-(1-hexyl-2,4-dioxo-1,3-diazaspiro[4.5]dec-3-yl)acetamide]	205 °C
CCCCc1ccc(N2C(=O)N(CC(=O)Nc3c(C(C)C)cccc3C(C)C)C(=O)C23CCCC3)cc1 [compound (I.40), 2-[1-(4-Butylphenyl)-2,4-dioxo-1,3-diazaspiro[4.4]non-3-yl]-N-(2,6-diisopropylphenyl)acetamide]	228 °C
CCCCc1ccc(N2C(=O)N(CC(=O)Nc3c(C(C)C)cccc3C(C)C)C(=O)C23CCCCC3)cc1 [compound (I.38), 2-[1-(4-Butylphenyl)-2,4-dioxo-1,3-diazaspiro[4.5]dec-3-yl]-N-(2,6-diisopropylphenyl)acetamide]	220 °C
CC(C)c1cccc(C(C)C)c1NC(=O)CN1C(=O)N(CC2CC2)C2(CCCCC2)C1=O [compound (I.31), 2-(1-Cyclopropylmethyl-2,4-dioxo-1,3-diazaspiro[4.5]dec-3-yl)-N-(2,6-di-isopropylphenyl)acetamide]	240 °C
CC(C)c1cccc(C(C)C)c1NC(=O)CN1C(=O)N(C2CCCCCC2)C2(CCCCC2)C1=O [compound (I.15)]	248 °C
Cc1ccc(N2C(=O)N(CC(=O)Nc3c(C)cccc3C(C)C)C(=O)C23CCCCC3)cc1 [compound (I.47), 2-(2,4-Dioxo-1-p-tolyl-1,3-diazaspiro[4.5]dec-3-yl)-N-(2-isopropyl-6-methylphenyl)acetamide]	195 °C
